Results published in patent publication US7790143B2, “Vaccines for immunization against helicobacter” (priority 2005, dated 2010).

Key:
Parameters in all cases: key: R: resistant; S: susceptible; I: intermediate
[1] = test system: H. pylori; details: 30 μg; taxon 6 H. pylori; cited from earlier work
[2] = test system: H. muridarum; details: 30 μg; taxon 12 H. muridarum; cited from earlier work
[3] = test system: H. aurati; details: 30 μg; taxon 13 H. aurati; cited from earlier work
[4] = test system: H. bilis; details: 30 μg; taxon 8 H. bilis; cited from earlier work
[5] = test system: H. acinonychis; details: 30 μg; taxon 7 H. acinonychis; cited from earlier work
[6] = test system: H. mustelae; details: 30 μg; taxon 10 H. mustelae; cited from earlier work
[7] = test system: H. trogontum; details: 30 μg; taxon 9 H. trogontum; cited from earlier work
[8] = test system: H. nemestrinae; details: 30 μg; taxon 11 H. nemestrinae; cited from earlier work
[9] = test system: H. salomonis; details: 30 μg; taxon 5 H. salomonis; cited from earlier work
[10] = test system: H. felis; details: 30 μg; taxon 4 H. felis; cited from earlier work
[11] = test system: H. bizzozeronii; details: 30 μg; taxon 3 H. bizzozeronii; cited from earlier work
[12] = test system: H. baculiformis M50T; assay: Susceptibility to antimicrobials (30 μg); format: cell-based; details: taxon 1 H. baculiformis (this study)
Source text: Data were obtained from Bronsdon et al. (1991), Dewhirst et al. (2000a), Eaton et al. (1993), Fox et al. (1988, 1995), Hänninen et al. (1996, 2005), Jalava et al. (1997) Int J Syst Bacteriol 47, 975-982, Lee et al. (1988, Infect Immun 56, 2843-2850, 1992), Mendes et al. (1996); Patterson et al. (2000), Van den Buick et al. (2006, Int J Syst Evol Microbiol 56, 1559-1564).

| Compound | Susceptibility to [1] | Susceptibility to [2] | Susceptibility to [3] | Susceptibility to [4] | Susceptibility to [5] | Susceptibility to [6] | Susceptibility to [7] | Susceptibility to [8] | Susceptibility to [9] | Susceptibility to [10] | Susceptibility to [11] | Susceptibility to [12] |
| --- | --- | --- | --- | --- | --- | --- | --- | --- | --- | --- | --- | --- |
| CCn1cc(C(=O)O)c(=O)c2ccc(C)nc21 [Nalidixic acid] | R | R | S | R | R | S | R | R | R | R | R | I |
| CC(=O)OCC1=C(C(=O)O)N2C(=O)[C@@H](NC(=O)Cc3cccs3)[C@H]2SC1 [Cephalothin] | S | R | R | R | S | R | R | S | S | S | S | R |
